Where a name gives a salt, the structure may show the parent alone.
Tests used:
CYP3A4 = target: T1, CYP3A4 (Homo sapiens, UniProt P08684); experiment: CYP3A4 inhibition assay (midazolam, pooled human liver microsomes); assay type: in vitro ADME; conditions: pH 7.4, probe midazolam (2.5 μM), test compound 3 μM, human liver microsomes 0.1 mg/mL
T1 construct: tissue XenoTech LLC Lot 0610351; host or cells: pooled human liver microsomes
Protocol: (§1) Midazolam was obtained from BD Gentest (Waltham, Mass.); 1′ hydroxy midazolam and 1-hydroxy bufuralol maleate were obtained from Ultrafine Chemicals (Manchester, UK); bufuralol HCl, ketoconazole, quinidine, potassium phosphate, and NADPH were obtained from Sigma (St. Louis, Mo.). Test compounds were prepared at 10 mM concentration in DMSO (Mallinckrodt Inc., St. Louis, Mo.). NADPH was prepared at 10 mM concentration in a pH 7.4 buffer (8.3 mg/mL 66.7 mM potassium phosphate). Midazolam was prepared at 1 mM concentration in deionized water (Amgen, Thousand Oaks, Calif.), and bufuralol was prepared at 2 mM concentration in deionized water. A stock solution of ketoconazole was prepared at 37 mM concentration in DMSO, and quinidine was prepared at 500 uM concentration in DMSO. Formic acid in acetonitrile (0.05%, ACN) was used as a quench solution (Sigma-Aldrich, St. Louis, Mo.). All solvents used for LC/MS were of chromatographic grade. Pooled human liver microsomes (Lot 0610351) were purchased from XenoTech LLC, (Lenexa, Kans.).
Pooled human liver microsomes (0.1 mg/mL) were incubated at 37° C. in a phosphate buffer (66.7 mM potassium phosphate at pH 7.4) with the selective CYP3A substrate midazolam at a concentration of 2.5 μM in the presence and absence of test compound (3 μM). The reaction was started with the addition of NADPH (1 mM final concentration). The reaction was stopped after 10 minutes by addition of formic acid in acetonitrile. 1′-Hydroxymidazolam metabolite formation was measured by an HPLC MS detection method (mobile phases were 0.1% AcOH in 5% MeOH, and 0.1% AcOH in 95% MeOH; the HPLC column was an Onyx Monolithic C18 CHO-7645 HPLC column obtained from Phenomenex; Shimadzu LC-10ADVP equipped Biomek FX Liquid handling system and CTC Analytics PAL well auto-sampler; Mass spectrometer: Applied Biosystems API 3000 using Analyst 1.4.1 software). Inhibition was determined by the ratio of the amount of 1′-hydroxy midazolam metabolite formed in the presence of test compound to the amount of metabolite found in the absence of test compound Inhibition was measured relative to the rate of formation of 1′-hydroxy midazolam incubated at 2.5 μM without test compound.

CYP2D6 = target: T2, CYP2D6 (Homo sapiens, UniProt P10635); experiment: CYP2D6 inhibition assay (bufuralol, pooled human liver microsomes); assay type: in vitro ADME; conditions: pH 7.4, probe bufuralol (5 μM), test compound 3 μM, human liver microsomes 0.25 mg/mL
T2 construct: tissue XenoTech LLC Lot 0610351; host or cells: pooled human liver microsomes
Protocol: as §1
Pooled human liver microsomes (0.25 mg/mL) were incubated at 37° C. in a phosphate buffer (66.7 mM potassium phosphate at pH 7.4) with the selective CYP2D6 substrate bufuralol at a concentration of 5 μM in the presence and absence of test compound (3 μM). The reaction was started with the addition of NADPH (1 mM final concentration). The reaction was stopped after 10 minutes by addition of formic acid in acetonitrile. 1-Hydroxybufuralol metabolite formation was measured by an HPLC MS detection method (mobile phases for HPLC were: 0.1% AcOH in 5% MeOH, and 0.1% AcOH in 95% MeOH; the HPLC column was an Onyx Monolithic C18 CHO-7645 HPLC column from Phenomenex; Shimadzu LC-10ADVP equipped Biomek FX Liquid handling system and CTC Analytics PAL well auto-sampler; Mass spectrometer: Applied Biosystems API 3000 using Analyst 1.4.1 software). Inhibition was determined by the ratio of the amount of 1-hydroxy bufuralol metabolite formed metabolite in the presence of test compound to the amount of metabolite in the absence of test compound.

U87MG tumors = experiment: U87MG xenograft tumor growth model; assay type: in vivo, Athymic nude mice; conditions: oral 10, 30, 60 and 100 mg/kg/day; 13 days (Example 2), 10 days and 17 days (Example 18)
Protocol: The effect of PKB inhibition on tumor growth in vivo was assessed in an established U87MG xenograft model for Examples 2 and 18. Athymic nude mice bearing U87MG tumors (approximately 200 mm^3) in the right flank were treated with the compound orally at the dosage of 10, 30, 60, and 100 mg/kg/day (n=10) for 13 days (Example 2) and for 10 days and 17 days (Example 18). Tumor volume and body weight were measured twice per week. Data were expressed as means plus or minus standard errors and plotted as a function of time. Statistical significance of the effect was evaluated by Repeated Measures Analysis of Variance (RMANOVA) followed by Scheffe post hoc testing for multiple comparisons.

T1 sequence (P08684 whole entry): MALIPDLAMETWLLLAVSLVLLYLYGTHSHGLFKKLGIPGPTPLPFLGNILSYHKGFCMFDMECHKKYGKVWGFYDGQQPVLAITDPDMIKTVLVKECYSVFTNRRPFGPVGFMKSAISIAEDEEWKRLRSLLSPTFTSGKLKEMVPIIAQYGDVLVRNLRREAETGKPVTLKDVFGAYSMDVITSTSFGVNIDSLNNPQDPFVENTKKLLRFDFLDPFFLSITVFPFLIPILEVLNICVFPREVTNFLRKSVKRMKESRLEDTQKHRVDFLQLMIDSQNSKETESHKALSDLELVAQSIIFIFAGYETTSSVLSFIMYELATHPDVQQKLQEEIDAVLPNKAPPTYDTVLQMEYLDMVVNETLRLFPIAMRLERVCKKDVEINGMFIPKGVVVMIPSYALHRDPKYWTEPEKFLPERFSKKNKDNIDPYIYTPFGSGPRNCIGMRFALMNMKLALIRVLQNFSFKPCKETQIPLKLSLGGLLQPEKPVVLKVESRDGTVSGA
T2 sequence (P10635 whole entry): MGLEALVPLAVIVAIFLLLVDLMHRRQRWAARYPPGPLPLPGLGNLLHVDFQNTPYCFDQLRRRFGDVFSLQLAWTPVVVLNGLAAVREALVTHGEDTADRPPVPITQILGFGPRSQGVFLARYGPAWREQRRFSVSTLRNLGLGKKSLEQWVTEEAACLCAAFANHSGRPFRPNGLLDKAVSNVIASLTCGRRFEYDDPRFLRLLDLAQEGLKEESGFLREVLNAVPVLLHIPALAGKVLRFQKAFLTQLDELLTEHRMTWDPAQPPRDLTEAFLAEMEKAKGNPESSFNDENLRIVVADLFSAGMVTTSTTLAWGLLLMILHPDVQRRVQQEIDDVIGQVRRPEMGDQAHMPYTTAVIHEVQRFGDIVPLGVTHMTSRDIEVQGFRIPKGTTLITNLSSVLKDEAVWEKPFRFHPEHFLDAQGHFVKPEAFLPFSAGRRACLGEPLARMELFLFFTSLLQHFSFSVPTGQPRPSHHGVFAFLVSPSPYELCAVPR

Structure (SMILES)	inhibition at 10 min, 3 μM (CYP3A4) [%]	inhibition at 10 min, 3 μM (CYP2D6) [%]	tumor growth inhibition (U87MG tumors)
CC(F)(F)c1ccc(C[C@H](N)CNc2ncc(-c3ccc4cnc(F)cc4c3)s2)cn1 [Example 7, N—((S)-2-Amino-3-(6-(1,1-difluoroethyl)pyridin-3-yl)propyl)-5-(3-fluoroisoquinolin-6-yl)thiazol-2-amine]	13	23	–
N[C@H](CNc1ncc(-c2ccc3cnc(F)cc3c2)s1)Cc1ccc(Cl)c(F)c1 [Example 44, (2S)-3-(4-Chloro-3-fluorophenyl)-N-1-(5-(3-fluoro-6-isoquinoliny)-1,3-thiazol-2-yl)-1-2-propanediamine]	48	42	–
N[C@H](CNc1ncc(-c2ccc3cnc(F)cc3c2)s1)CN1CCC(C(F)(F)F)CC1 [Example 25, N—((R)-2-Amino-3-(4-(trifluoromethyl)piperidin-1-yl)propyl)-5-(3-fluoroisoquinolin-6-yl)thiazol-2-amine]	48	51	–
N[C@H](CNc1ncc(-c2ccc3cnc(F)cc3c2)s1)[C@@H](CO)c1ccc(C(F)(F)F)cc1 [Example 33, (2S,3S)-3-Amino-4-(5-(3-fluoroisoquinolin-6-yl)thiazol-2-ylamino)-2-(4-(trifluoromethyl)phenyl)butan-1-ol]	48	49	–
N[C@H](CCc1ncc(-c2ccc3cnc(F)cc3c2)s1)[C@@H](O)c1ccc(C(F)(F)F)cc1 [Example 36, (1S,2R)-2-Amino-4-(5-(3-fluoroisoquinolin-6-yl)thiazol-2-yl)-1-(4-(trifluoromethyl)phenyl)butan-1-ol trifluoroacetate]	0	27	–
CC(F)(F)c1ccc([C@H](O)[C@H](N)CNc2ncc(-c3ccc4cnc(F)cc4c3)s2)cc1 [Example 38, (1S,2R)-2-Amino-1-(4-(1,1-difluoroethyl)phenyl)-3-((5-(3-fluoro-6-isoquinolinyl)-1,3-thiazol-2-yl)amino)-1-propanol trifluoroacetate]	9	44	–
COCc1nc(NC[C@@H](N)Cc2ccc(C(F)(F)F)nc2)sc1-c1ccc2cnc(F)cc2c1 [Example 18, N—((S)-2-Amino-3-(6-(trifluoromethyl)pyridin-3-yl)propyl)-5-(3-fluoroisoquinolin-6-yl)-4-(methoxymethyl)thiazol-2-amine]	0	75	Dose dependent tumor growth inhibition
N[C@H](CNc1ncc(-c2ccc3cnc(F)cc3c2)s1)Cc1ccc(C(F)(F)F)cc1 [Example 4, N—((S)-2-Amino-3-(4-(trifluoromethyl)phenyl)propyl)-5-(3-fluoroisoquinolin-6-yl)thiazol-2-amine trifluoroacetate]	0	44	–
N[C@H](CNc1ncc(-c2ccc3cnc(F)cc3c2)s1)Cc1ccc(C(F)(F)F)nc1 [Example 2, (2S)—N-(5-(3-Fluoro-6-isoquinolinyl)-1,3-thiazol-2-yl)-3-(6-(trifluoromethyl)-3-pyridinyl)-1,2-propanediamine]	75	53	Dose dependent tumor growth inhibition
C[C@@H](c1ccc(C(F)(F)F)cc1)[C@H](N)CNc1ncc(-c2ccc3cnc(F)cc3c2)s1 [Example 10, N-((2S,3S)-2-Amino-3-(4-(trifluoromethyl)phenyl)butyl)-5-(3-fluoroisoquinolin-6-yl)thiazol-2-amine]	0	19	–
CC(F)(F)c1ccc(C[C@H](N)CCc2ncc(-c3ccc4cnc(F)cc4c3)s2)cn1 [Example 50]	21	71	–
